Tests used:
[1] = tested on: Fusarium oxysporum; test: Fungal growth inhibition, treated disc on agar (FUS OXY); format: cell-based; conditions: disc dipped in 500 mg/l, 29° C.
[2] = tested on: Helminthosporium sativum; test: Barley spot blotch, foliar treatment (HEL SAT); format: in vivo; conditions: foliar, 1,000 mg/l
Description: Compositions containing Compounds Nos. 1-81 were prepared by dissolving 0.24 grams of each of the compounds in 8 ml of acetone or other suitable inert solvent. Each of the resultant solutions was treated with 3 drops of TWEEN 20 (ethoxylated ethylene sorbitan monolaurate, a non-ionic surfactant)(I.C.I.), and water was added to form an emulsion. The degree of dilution with water was dictated by the desired concentration of the compound in the composition. The greater the quantity of water added, the lower the concentration of the compound in the composition, reported in milligrams per liter (mg/l) Ten plants of six day-old Barley (variety "Robust") were planted in each of a plurality of pots. Each pot was then either sprayed with one of the compositions of Example 9, at a concentration of 1,000 mg/l, or left unsprayed. The unsprayed plants were used as controls. An equal number of pots were sprayed and unsprayed. All plants, sprayed and unsprayed, were thereafter inoculated with spores of the blotch fungus Helminthosporium sativum. All inoculated plants were placed in a 99% humidity chamber for 24 hours and then placed in a greenhouse, maintained at a temperature of 21° C., for eight days. […] Percent control was computed and the results are summarized in Table II under the heading "HEL SAT".

[3] = tested on: Botrytis cinerea; test: Fungal growth inhibition, treated disc on agar (BOT CIN); format: cell-based; conditions: disc dipped in 500 mg/l, 29° C.
Description: (§3) Filter paper discs, each 11 mm. in diameter, were dipped in each of the test solutions. The discs were allowed to air dry to drive off the acetone solvent. A number of untreated discs were used as controls.
(§4) The treated and untreated discs were then placed on agar plates and one of the following fungus species: Septoria nodorum (SEP NOD), Botrytis cinerea (BOT CIN), Fusarium oxysporum (FUS OXY), Pythium ultimum (PYT ULT), Rhizoctonia solani (RHI SOL), Colletotrichum gossypii (COL GOS), and Scierotinia minor (SCL MIN), was added to the center of each disc in the form of a culture plug with the fungus mat in contact with the paper of the test disc. Cercosporidium personatum (CER PER), was added to discs as a spore suspension (20,000 spores/ml) to the disc (two drops of spore suspension per disc), rather than a mycelial culture plug. The plates were then incubated at 29° C. in an oven.
(§5) With the exception of the discs containing Cercosporidium personatum, the discs were evaluated by first measuring the radius from the center of the fungus colony on the treated discs and on the untreated discs. Percent growth inhibition of each of the compounds tested was determined as a function of the difference between the radius of the fungus colony on the treated disc versus the radius of the fungus colony on the untreated disc.

[4] = tested on: Septoria nodorum; test: Fungal growth inhibition, treated disc on agar (SEP NOD); format: cell-based; conditions: disc dipped in 500 mg/l, 29° C.
Description: as §3, §4, §5

[5] = tested on: Erysiphe graminis; test: Powdery mildew of barley, systemic root uptake (BMS); format: in vivo; conditions: 45 ml of 250 mg/l, 8 days after inoculation
Description: (§1) Compositions containing Compounds Nos. 1-81 were prepared by dissolving 0.24 grams of each of the compounds in 8 ml of acetone or other suitable inert solvent. Each of the resultant solutions was treated with 3 drops of TWEEN 20 (ethoxylated ethylene sorbitan monolaurate, a non-ionic surfactant)(I.C.I.), and water was added to form an emulsion. The degree of dilution with water was dictated by the desired concentration of the compound in the composition. The greater the quantity of water added, the lower the concentration of the compound in the composition, reported in milligrams per liter (mg/l) […] Upon reaching these ages, the plants were either treated with 45 ml of 250 mg/l concentration of the compositions of Example 9 or were left untreated. The untreated plants were used as controls. The 45 ml compositions saturated the soil of the treated pots without significant loss through drainage into the saucers below the pots. Twenty-four hours after the treatment with the compositions, both the barley and cucumber plants in all the pots, those treated and those untreated, were inoculated with powdery mildew fungus. This was accomplished by tapping leaves of previously infected barley and cucumber plants over the treated and untreated pots containing the barley and cucumber plants, respectively, to distribute spores of the fungus over the plants tested. […] Intermediate ratings were assigned depending on the degree of disease. […] The results of the powdery mildew disease control of barley are reported under the heading of "BMS". The results for cucumber mildew control are reported under the heading "CMS".

[6] = tested on: Erysiphe polygoni; test: Powdery mildew on pinto bean, foliar application (ERY POL); format: in vivo; conditions: similar procedure as barley (1,000 mg/l)
Description: (§2) Compositions containing Compounds Nos. 1-81 were prepared by dissolving 0.24 grams of each of the compounds in 8 ml of acetone or other suitable inert solvent. Each of the resultant solutions was treated with 3 drops of TWEEN 20 (ethoxylated ethylene sorbitan monolaurate, a non-ionic surfactant)(I.C.I.), and water was added to form an emulsion. The degree of dilution with water was dictated by the desired concentration of the compound in the composition. The greater the quantity of water added, the lower the concentration of the compound in the composition, reported in milligrams per liter (mg/l) Ten plants of "Robust" variety barley were planted in each of a plurality of pots. Each pot was then either sprayed with one of the compositions of Example 9, at a composition concentration of 1,000 mg/l, or left unsprayed. For each pot sprayed, one pot was left unsprayed as a control. After the leaves of the sprayed pots were dried, the sprayed pots and the unsprayed control pots were placed in a greenhouse maintained at 21° C. All the pots were then inoculated with barley powdery mildew fungus, Erysiphe graminis. This inoculation was accomplished by distributing spores of the fungus over the leaves of the plants to be tested from plants which had previously been infected with the mildew disease. […] Again, percent control was computed by comparing the treatment scores with the scores of the untreated controls. The results are summarized in Table II under the heading "ERY GRA". Using a similar procedure as described above for the barley, pinto bean plants were prepared, treated and inoculated with the fungus Erysiphe polygoni. The results of this testing are summarized in Table II under the heading "ERY POL".

[7] = tested on: Rhizoctonia solani; test: Fungal growth inhibition, treated disc on agar (RHI SOL); format: cell-based; conditions: disc dipped in 500 mg/l, 29° C.
[8] = tested on: Erysiphe cichoracearum; test: Powdery mildew of cucumber, systemic root uptake (CMS); format: in vivo; conditions: 45 ml of 250 mg/l, 8 days after inoculation
Description: as §1

[9] = tested on: Colletotrichum gossypii; test: Fungal growth inhibition, treated disc on agar (COL GOS); format: cell-based; conditions: disc dipped in 500 mg/l, 29° C.
[10] = tested on: Pythium ultimum; test: Fungal growth inhibition, treated disc on agar (PYT ULT); format: cell-based; conditions: disc dipped in 500 mg/l, 29° C.
[11] = tested on: Uromyces phaseoli; test: Bean rust fungus eradicant test (URO PHA); format: in vivo; conditions: pinto bean, eradicant spray 2 days after inoculation, 1,000 mg/l
Description: Compositions containing Compounds Nos. 1-81 were prepared by dissolving 0.24 grams of each of the compounds in 8 ml of acetone or other suitable inert solvent. Each of the resultant solutions was treated with 3 drops of TWEEN 20 (ethoxylated ethylene sorbitan monolaurate, a non-ionic surfactant)(I.C.I.), and water was added to form an emulsion. The degree of dilution with water was dictated by the desired concentration of the compound in the composition. The greater the quantity of water added, the lower the concentration of the compound in the composition, reported in milligrams per liter (mg/l) A plurality of pots were each planted with two pinto bean plants, Phaseolus vulgaris, each, susceptible to rust disease. When the plants were 7 days old, at the primary leaf stage of growth, they were all sprayed with a suspension containing 20,000 spores of the bean rust fungus, Uromyces phaseoli, per ml. All the pots were then incubated in a controlled environmental chamber, maintained at 99% humidity and 21° C., for 24 hours to allow infection to occur. The plants were then removed from the incubator and allowed to dry. Two days after inoculation each of the infected plants was then either sprayed with one of the compositions of Example 9, at a dosage of 1,000 mg/l, or left unsprayed. The unsprayed plants acted as controls. All of the sprayed and unsprayed plants were then placed in a greenhouse at 21° C. for nine days to allow the disease to develop. […] Control of disease was determined by comparing treated plants with the untreated controls. The results, expressed as percent reduction of disease, are summarized in Table II under the heading "URO PHA".

[12] = tested on: Scierotinia minor; test: Fungal growth inhibition, treated disc on agar (SCL MIN); format: cell-based; conditions: disc dipped in 500 mg/l, 29° C.
Description: as §3, §4, §5

[13] = tested on: Erysiphe graminis; test: Powdery mildew in barley, foliar application (ERY GRA); format: in vivo; conditions: foliar, 1,000 mg/l, 8 days after inoculation
Description: as §2, with “GRA".” for “GRA". Using a similar procedure as described above for the barley, pinto bean plants were prepared, treated and inoculated with the fungus Erysiphe polygoni. The results of this testing are summarized in Table II under the heading "ERY POL".”

[14] = tested on: Pyricularia oryzae; test: whole plant or invertebrate; format: in vivo; conditions: barley, foliar, 1,000 mg/l

CCCCC(C#N)(CCc1ccc(OC)cc1)c1ccccn1 (centres unmarked) [Compound 27]
Percent Growth Inhibition, FUS OXY [1]: 10% | Percent Reduction of Disease, HEL SAT [2]: 90% | Percent Growth Inhibition, BOT CIN [3]: 78% | Percent Growth Inhibition, SEP NOD [4]: 10% | Percent Reduction of Disease, BMS [5]: 0% | Percent Reduction of Disease, ERY POL [6]: 90% | Percent Growth Inhibition, RHI SOL [7]: 5% | Percent Reduction of Disease, CMS [8]: 0% | Percent Growth Inhibition, COL GOS [9]: 20% | Percent Growth Inhibition, PYT ULT [10]: 10% | Percent Reduction of Disease, URO PHA [11]: 100% | Percent Growth Inhibition, SCL MIN [12]: 93% | Percent Reduction of Disease, ERY GRA [13]: 90% | Percent Reduction of Disease, PYR ORY [14]: 70%
